One assay addresses T1, GPR6 (Homo sapiens, UniProt P46095).
T1 construct: expressed in transfected cells; host or cells: CHO cells
Kind of assay: GPR6 antagonist functional cAMP assay (LANCE Ultra cAMP TR-FRET, CHO cells stably expressing GPR6). Format: cell-based. The method in brief: (§1)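 cAMP quantified by TR-FRET immunoassay after 45 min compound treatment at 37° C of CHO cells stably expressing GPR3 or GPR6, in PDE-inhibitor (Ro 20-1724, 150 μM) buffer with 0.1% BSA. Data scaled between DMSO (0%) and reference compounds (100%); antagonist IC50 by 4-parameter logistic fit.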

A further assay addresses T2, GPR3 (Homo sapiens, UniProt P46089).
T2 construct: expressed in transfected cells; host or cells: CHO cells
The experiment in a line: GPR3 antagonist functional cAMP assay (LANCE Ultra cAMP TR-FRET, CHO cells stably expressing GPR3). In kind it is cell-based. Put shortly: as §1

Where [1] appears, read: CHO cells stably expressing GPR6, cAMP assay.
The mark [2] stands for this setting: CHO cells stably expressing GPR3, cAMP assay.
Setting [3] is: procedure as described in Example 24.
Setting [4] is: CHO cells stably expressing GPR6, cAMP assay (Example 24).
Setting [5] is: CHO cells stably expressing GPR3, cAMP assay (Example 24).

T2 sequence (P46089 whole entry, species assumed): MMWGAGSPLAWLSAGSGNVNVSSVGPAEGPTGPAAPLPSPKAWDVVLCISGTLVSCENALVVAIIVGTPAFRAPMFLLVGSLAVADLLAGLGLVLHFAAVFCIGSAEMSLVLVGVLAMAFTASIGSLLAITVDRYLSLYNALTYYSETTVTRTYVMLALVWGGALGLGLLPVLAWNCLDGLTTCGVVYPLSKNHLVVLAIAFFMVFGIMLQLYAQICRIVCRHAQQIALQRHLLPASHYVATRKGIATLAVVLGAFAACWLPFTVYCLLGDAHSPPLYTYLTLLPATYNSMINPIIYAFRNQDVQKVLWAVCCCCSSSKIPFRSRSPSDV
T1 sequence (P46095 whole entry): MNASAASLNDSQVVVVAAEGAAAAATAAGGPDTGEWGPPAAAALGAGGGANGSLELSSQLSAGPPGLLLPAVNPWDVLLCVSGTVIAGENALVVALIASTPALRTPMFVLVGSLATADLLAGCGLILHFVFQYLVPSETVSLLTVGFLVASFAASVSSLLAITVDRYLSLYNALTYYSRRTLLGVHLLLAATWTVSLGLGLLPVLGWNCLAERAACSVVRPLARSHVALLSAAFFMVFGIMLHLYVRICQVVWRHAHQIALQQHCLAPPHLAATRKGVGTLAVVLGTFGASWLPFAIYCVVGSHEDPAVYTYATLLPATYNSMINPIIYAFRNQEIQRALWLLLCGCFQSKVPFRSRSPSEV

Take `CC(=O)N1CCc2nc(N3CCN(Cc4c[nH]cn4)CC3)c(-c3cnn(C)c3)nc2C1` [Compound 548, 1-(2-{4-[(4-imidazolyl)methyl]-1-piperazinyl}-3-(1-methyl-4-pyrazolyl)-5,6,7,8-tetrahydro-1,4,6-triaza-6-naphthyl)-1-ethanone]: the IC50 against GPR6 (setting [1]) and against GPR3 (setting [2]) was at least 30000 nM throughout.

For the molecule `CC(=O)N1CCc2nc(N3CCC(Oc4ccc(F)cc4F)CC3)c(-c3cccc(OC(C)C)n3)nc2C1` [Compound 39, 1-{2-[4-(2,4-difluorophenoxy)piperidin-1-yl]-3-[6-(propan-2-yloxy)pyridin-2-yl]-5H,6H,7H,8H-pyrido[3,4-b]pyrazin-6-yl}ethan-1-one], the IC50 against GPR6 (setting [3]) is 1000 to 30000 nM; on GPR3 (setting [3]) it was 100 to 1000 nM.

Turning to `CC(=O)N1CCc2nc(N3CCC(Oc4ccc(F)cc4F)CC3)c(-c3cnn(C4COC4)c3)nc2C1` [Compound 77, 1-{2-[4-(2,4-difluorophenoxy)piperidin-1-yl]-3-[1-(oxetan-3-yl)-1H-pyrazol-4-yl]-5H,6H,7H,8H-pyrido [3,4-b]pyrazin-6-yl}ethan-1-one], the IC50 against GPR6 (setting [4]) fell in the range of 100 to 1000 nM; against GPR3 (setting [5]) it was 1000 to 30000 nM.

In the case of `Cn1cc(-c2nc3cnc(O)cc3nc2N2CCC(Oc3ccc(F)cc3F)CC2)cn1` [Compound 395, 2-(4-(2,4-difluorophenoxy)piperidin-1-yl)-3-(1-methyl-1H-pyrazol-4-yl)pyrido[3,4-b]pyrazin-7-ol], the IC50 against GPR6 (setting [4]) and at GPR3 (setting [5]) was 1000 to 30000 nM each time.

For the molecule `CC(=O)N1CCc2nc(N3CCC(Oc4cc(Cl)c(F)cc4F)CC3)c(-c3cnn(C)c3)nc2C1` [Compound 458, 1-{2-[4-(5-chloro-2,4-difluorophenoxy)piperidin-1-yl]-3-(1-methyl-1H-pyrazol-4-yl)-5H,6H,7H,8H-pyrido[3,4-b]pyrazin-6-yl}ethan-1-one], the figures for the IC50 against GPR6 (setting [4]) and against GPR3 (setting [5]) were 100 to 1000 nM and 1000 to 30000 nM, respectively.

Consider `Cn1cc(-c2nc3cnc(OCCO)cc3nc2N2CCC(Oc3ccc(F)cc3F)CC2)cn1` [Compound 399, 2-({2-[4-(2,4-difluorophenoxy)piperidin-1-yl]-3-(1-methyl-1H-pyrazol-4-yl)pyrido[3,4-b]pyrazin-7-yl}oxy)ethan-1-ol], for which the IC50 against GPR6 (setting [4]) and at GPR3 (setting [5]) was 1000 to 30000 nM throughout.

On to `CC(=O)N1Cc2nc(-c3cnn(C)c3)c(N3CCC(Oc4ccc(F)cc4F)CC3)nc2CC1C` (single isomer, unassigned) [Compound 446], for which the IC50 lay in the range of 100 to 1000 nM on GPR6 (setting [4]) and 1000 to 30000 nM against GPR3 (setting [5]).

With `CC(=O)N1CCc2nc(N3CCC(C(=O)N(C)c4ccc(F)cc4F)C3)c(-c3cnn(C)c3)nc2C1` (stereo not drawn) [Compound 392, 1-[6-acetyl-3-(1-methyl-1H-pyrazol-4-yl)-5H,6H,7H,8H-pyrido[3,4-b]pyrazin-2-yl]-N-(2,4-difluorophenyl)-N-methylpyrrolidine-3-carboxamide], the half-maximal inhibitory concentration (IC50) on GPR6 (setting [4]) was at least 30000 nM; at GPR3 (setting [5]) it was 1000 to 30000 nM.

As to `CC(=O)N1CCc2nc(N3CCC(Oc4ccc(F)cc4F)CC3)c(-c3cccc(C(=O)N(C)C)n3)nc2C1` [Compound 131, 6-(6-acetyl-2-(4-(2,4-difluorophenoxy)piperidin-1-yl)-5,6,7,8-tetrahydropyrido[3,4-b]pyrazin-3-yl)-N,N-dimethylpicolinamide], the IC50 on GPR6 (setting [4]) and against GPR3 (setting [5]) was 1000 to 30000 nM each time.

Take `COc1cc(-c2nc3c(nc2N2CCC(Oc4ccc(F)cc4F)CC2)CCN(C(C)=O)C3)ccn1` [Compound 20, 1-{2-[4-(2,4-difluorophenoxy)piperidin-1-yl]-3-(2-methoxypyridin-4-yl)-5H,6H,7H,8H-pyrido[3,4-b]pyrazin-6-yl}ethan-1-one]: the IC50 was in the range of 100 to 1000 nM at GPR6 (setting [3]) and 1000 to 30000 nM at GPR3 (setting [3]).

With `CC(C)(O)[C@@H](O)c1cc2nc(N3CCN(Cc4ccccc4F)CC3)c(-c3cnn(C(F)F)c3)nc2cn1` (single isomer, unassigned) [Compound 613], the IC50 lay in the range of 100 to 1000 nM on GPR6 (procedure of Example 24) and 1000 to 30000 nM against GPR3 (procedure of Example 24).

For the molecule `CC(=O)N1CCc2nc(N3CCC(Oc4c(F)cc(F)cc4F)CC3)c(-c3cnn(C)c3)nc2C1` [Compound 428, 1-[3-(1-methyl-1H-pyrazol-4-yl)-2-[4-(2,4,6-trifluorophenoxy)piperidin-1-yl]-5H,6H,7H,8H-pyrido[3,4-b]pyrazin-6-yl]ethan-1-one], the IC50 at GPR6 (setting [4]) was 100 to 1000 nM; at GPR3 (setting [5]), 1000 to 30000 nM.

Regarding `CCn1cc(-c2nc3cnc([C@H](O)C(C)(C)O)cc3nc2N2CCC(Oc3ccc(F)cc3F)CC2)cn1` (single isomer, unassigned) [Compound 571], the IC50 at GPR6 (setting [1]) was under 100 nM; at GPR3 (setting [2]), 1000 to 30000 nM.

In the case of `CC(=O)N1CCc2nc(N3CCC(Oc4ccc(Cl)cc4Cl)CC3)c(-c3cnn(C)c3)nc2C1` [Compound 429, 1-{2-[4-(2,4-dichlorophenoxy)piperidin-1-yl]-3-(1-methyl-1H-pyrazol-4-yl)-5H,6H,7H,8H-pyrido[3,4-b]pyrazin-6-yl}ethan-1-one], the IC50 fell in the range of 100 to 1000 nM on GPR6 (setting [4]) and 1000 to 30000 nM against GPR3 (setting [5]).

Turning to `CNC(=O)CN1CCc2nc(N3CCC(Oc4ccc(F)cc4F)CC3)c(-c3cn[nH]c3)nc2C1` [Compound 145, 2-{2-[4-(2,4-difluorophenoxy)piperidin-1-yl]-3-(1H-pyrazol-4-yl)-5H,6H,7H,8H-pyrido[3,4-b]pyrazin-6-yl}-N-methylacetamide], the concentration for half-maximal inhibition (IC50) on GPR6 (setting [4]) and on GPR3 (setting [5]) was 1000 to 30000 nM throughout.

As to `CC(=O)N1CCc2nc(N3CCCC(Oc4ccccc4F)C3)c(-c3cnn(C)c3)nc2C1` (stereo not drawn) [Compound 336, 1-{2-[3-(2-fluorophenoxy)piperidin-1-yl]-3-(1-methyl-1H-pyrazol-4-yl)-5H,6H,7H,8H-pyrido[3,4-b]pyrazin-6-yl}ethan-1-one], the IC50 is at least 30000 nM against GPR6 (procedure of Example 24) and 100 to 1000 nM against GPR3 (procedure of Example 24).

With `Cn1cc(-c2nc3cnc(C(O)CN)cc3nc2N2CCC(Oc3ccc(F)cc3F)CC2)cn1` (stereo not drawn) [Compound 309, 2-amino-1-(2-(4-(2,4-difluorophenoxy)piperidin-1-yl)-3-(1-methyl-1H-pyrazol-4-yl)pyrido[3,4-b]pyrazin-7-yl)ethan-1-ol], the IC50 on GPR6 (procedure of Example 24) fell in the range of 100 to 1000 nM; against GPR3 (procedure of Example 24), 1000 to 30000 nM.

For `Cn1cc(-c2nc3cnc(C4CC4CO)cc3nc2N2CCC(Oc3ccc(F)cc3F)CC2)cn1` (stereo not drawn) [Compound 768, (2-{2-[4-(2,4-difluorophenoxy)-1-piperidyl]-3-(1-methyl-4-pyrazolyl)-1,4,6-triaza-7-naphthyl}cyclopropyl)methanol], the IC50 against GPR6 (procedure of Example 24) and against GPR3 (procedure of Example 24) was 1000 to 30000 nM in each case.

Consider `OCCN1CCc2nc(N3CCC(Oc4ccc(F)cc4F)CC3)c(-c3cnn(C4CCCCO4)c3)nc2C1` (stereo not drawn) [Compound 140, 2-{2-[4-(2,4-difluorophenoxy)piperidin-1-yl]-3-[1-(oxan-2-yl)-1H-pyrazol-4-yl]-5H,6H,7H,8H-pyrido[3,4-b]pyrazin-6-yl}ethan-1-ol], for which the half-inhibitory concentration (IC50) against GPR6 (setting [4]) and against GPR3 (setting [5]) was 1000 to 30000 nM throughout.

For `Cn1cc(-c2nc3cnc(C[C@H](O)CO)cc3nc2N2CCC(Oc3ccc(F)cc3F)CC2)cn1` (single isomer, unassigned) [Compound 416], the half-inhibitory concentration (IC50) at GPR6 (setting [4]) lay within 100 to 1000 nM; on GPR3 (setting [5]), 1000 to 30000 nM.

Turning to `CC(=O)N1CCc2nc(N3CCC(Oc4ccccc4F)C3)c(-c3cnn(C)c3)nc2C1` (stereo not drawn) [Compound 340, 1-{2-[3-(2-fluorophenoxy)pyrrolidin-1-yl]-3-(1-methyl-1H-pyrazol-4-yl)-5H,6H,7H,8H-pyrido[3,4-b]pyrazin-6-yl}ethan-1-one], the values for the IC50 on GPR6 (procedure of Example 24) and against GPR3 (procedure of Example 24) were 1000 to 30000 nM and at least 30000 nM, respectively.

In the case of `CNC(CO)c1cc2nc(N3CCC(Oc4ccc(F)cc4F)CC3)c(-c3cnn(C)c3)nc2cn1` (stereo not drawn) [Compound 442, 2-{2-[4-(2,4-difluorophenoxy)piperidin-1-yl]-3-(1-methyl-1H-pyrazol-4-yl)pyrido[3,4-b]pyrazin-7-yl}-2-(methylamino)ethan-1-ol], the IC50 against GPR6 (setting [4]) and at GPR3 (setting [5]) was 1000 to 30000 nM each time.

In the case of `CC(=O)N1CCc2nc(N3CCC(Oc4ccc(F)cc4F)CC3)c(-c3cccn(C)c3=O)nc2C1` [Compound 113, 3-{6-acetyl-2-[4-(2,4-difluorophenoxy)piperidin-1-yl]-5H,6H,7H,8H-pyrido[3,4-b]pyrazin-3-yl}-1-methyl-1,2-dihydropyridin-2-one], the IC50 was 1000 to 30000 nM at GPR6 (setting [4]) and at least 30000 nM against GPR3 (setting [5]).

Turning to `CCn1cc(-c2nc3cnc(C(O)C(C)(C)O)cc3nc2N2CCC(Oc3ccc(F)cc3F)CC2)cn1` (stereo not drawn) [Compound 307, 1-{2-[4-(2,4-difluorophenoxy)piperidin-1-yl]-3-(1-ethyl-1H-pyrazol-4-yl)pyrido[3,4-b]pyrazin-7-yl}-2-methylpropane-1,2-diol], the IC50 fell in the range of 100 to 1000 nM against GPR6 (procedure of Example 24) and 1000 to 30000 nM on GPR3 (procedure of Example 24).

As to `CC(C)(O)C(O)c1cc2nc(-c3cnn(C(F)F)c3)c(N3CCC(=Cc4ccc(F)cc4F)CC3)nc2cn1` (single isomer, unassigned) [Compound 766], the IC50 was 100 to 1000 nM on GPR6 (procedure of Example 24) and 1000 to 30000 nM at GPR3 (procedure of Example 24).

For `CC(=O)N1CCc2nc(N3CCC(C(=O)Nc4ccc(F)cc4)C3)c(-c3cnn(C)c3)nc2C1` (stereo not drawn) [Compound 391, 1-[6-acetyl-3-(1-methyl-1H-pyrazol-4-yl)-5H,6H,7H,8H-pyrido[3,4-b]pyrazin-2-yl]-N-(4-fluorophenyl)pyrrolidine-3-carboxamide], the IC50 was at least 30000 nM at GPR6 (setting [4]) and 1000 to 30000 nM on GPR3 (setting [5]).

With `CC(C)(O)C(O)c1cc2nc(N3CCC(Oc4ccc(F)cc4F)CC3)c(-c3cnn(C(F)F)c3)nc2cn1` (stereo not drawn) [Compound 407, 1-{3-[1-(difluoromethyl)-4-pyrazolyl]-2-[4-(2,4-difluorophenoxy)-1-piperidyl]-1,4,6-triaza-7-naphthyl}-2-methyl-1,2-propanediol], the IC50 at GPR6 (setting [4]) was in the range of 100 to 1000 nM; against GPR3 (setting [5]), 1000 to 30000 nM.
